Measured values reported in US20230102223A1, “PHARMACEUTICAL COMPOSITIONS WITH ANTIFLAVIVIRAL ACTIVITY” (HEALTH RESEARCH, INC., priority 2016, published 2023).
Structures can show the parent of a compound that is named as a salt. Where two headings read alike, the source gives them in different places.

Experiments:
[1] = target: NS2B-NS3 interactions (Nluc-E66stop/GCN) (Dengue virus type 2, UniProt P29990); test: biochemical; assay type: binding, DENV2
[2] = target: DENV2 His-NS2B/His-MBP-NS3 protease (Dengue virus type 2, UniProt P29990); test: NS2B/NS3 protease inhibition assay; assay type: biochemical
[3] = test system: ZIKV (Puerto Rico strain PRVABC59); test: Viral titer reduction assay in A549 cells, ZIKV; assay type: cell-based, Zika virus; conditions: for titer of ZIKV in the absence of light exposure: in dark
WNV = test: microbe, parasite or virus in culture; assay type: cell-based, West Nile virus
JEV = test: microbe, parasite or virus in culture; assay type: cell-based, Japanese encephalitis virus
YFV = test: microbe, parasite or virus in culture; assay type: cell-based, yellow fever virus
SLEV = assay type: cell-based, St. Louis encephalitis virus; conditions: without ambient light (in dark)
POWV = assay type: cell-based, Powassan virus; conditions: without ambient light (in dark)
ZIKV = test: Time-of-addition experiment in infected A549 cells; assay type: cell-based, Zika virus; conditions: for virus reduction: titers at 48 h, no ambient light; for effectiveness of addition at 24-hour post-infection versus at the time of infection: temoporfin 90 nM, niclosamide 0.75 μM, viral plaque reduction assay
ZIKV strain GZ01/2016 = test: Viremia model in immunocompetent Balb/C mice; assay type: in vivo; conditions: 0.02 mg/mice ip daily for 2 days; RT-qPCR on day 2 post-infection
Experimental: Viremia on day 2 post-infection (pi) was determined by RT-qPCR, and statistical analysis was performed using the unpaired, two-tailed t-test.

ZIKV GZ01/2016 strain = test: Lethal A129 mice model; assay type: in vivo; conditions: 1 mg/kg ip daily for 5 days
Source text: For the lethal A129 mice model, a group of four-week old A129 mice were infected intraperitoneally (ip) with 2×10^5 PFU of ZIKV GZ01/2016 strain. […] Mice were observed daily for signs of illness and mortality. Survival curves were compared using the Log-rank test. All the ZIKV-infected animals treated with vehicle died with typical neurological symptoms including hind limb weakness and paralysis (FIG. 31B). […] Viremia was detected by RT-qPCR on day 2 post-ZIKV infection in three-week old Balb/C mice.

[4] = target: refolded His-NS3 protease domain (Dengue virus type 2, UniProt P29990); test: Surface plasmon resonance (SPR); assay type: binding
DENV2 His-MBP-NS3 = DENV2 His-MBP-NS3 (Dengue virus type 2, UniProt P29990); test: Protein thermal shift assay (PTSA); assay type: binding; conditions: compound 4.8 μM, protein 2.5 μM
Experimental: PTSA was conducted using an Applied Biosystem 7500 Fast Real-Time PCR System (ThermoFisher Scientific) from 25 to 80° C. The DENV2 His-MBP-NS3 (final concentration of 2.5 μM in 1× PBS) was mixed with each compound to attain a 4.8 μM final concentration in 1.6% DMSO in the MicroAmp® Fast Optical 96-Well Reaction Plate (ThermoFisher Scientific). Thermal denaturation was monitored using SYPRO Orange (Life Technologies) according to manufacturer's manual. The denaturation of the proteins was monitored by following the increase of the fluorescence emitted by the probe that binds exposed hydrophobic regions of the denatured protein. The melting temperature (Tm) was calculated as the mid-log of the transition phase from the native to the denatured protein, using a Derivative model using the Protein Thermal Shift™ Software v1.0 (ThermoFisher Scientific). The reference unfolding temperature of proteins in 1.6% DMSO (Tm-DMSO) was subtracted from the values in the presence of each compounds (Tm-comp) to obtain thermal shifts, ΔTm=Tm-comp−Tm-DMSO. Compounds were considered to be binders when ΔTm>0.5° C.

[5] = target: ZIKV GST-NS3 protease domain / FLAG-tagged ZIKV NS2B (Zika virus, UniProt Q32ZE1); test: Competitive GST pull-down assay; assay type: binding; conditions: pre-incubation with GST-NS3 beads; dose-dependent
Experimental: GST-NS3 or the GST-tag (10 μg) was immobilized on Glutathione sepharose-4B affinity beads (GE HealthCare). FLAG-tagged NS2B (10 μg) was incubated with the beads for 2 hours, and subjected to WB, using anti-FLAG (Genscript) and anti-GST antibodies (GE Healthcare). […] The assay was performed the same as in FIG. 32A, except that 2-fold dilution series of drugs were incubated with the GST-NS3 beads overnight prior to incubation with the FLAG-NS2B. […] The binding of NS2B to NS3 in the absence of each drag (DMSO control) was set as 100%. The relative binding of NS2B to NS3 in the presence of each drug was normalized to the DMSO control.

ZIKV NS3 expression = test: Western blot of viral protein expression; assay type: cell-based; conditions: 48 hrs; dose-dependent
Experimental: The ability of compounds to inhibit viral protein expression was also tested by WB, using GTX133309 ZIKV α-NS3 antibody (GeneTex, Inc.).
Lower panel, NS3 expression normalized to the GAPDH loading control.

DENV2 [6] = test system: DENV2
A549 cells = test: Cytotoxicity, MTT or WST-8 cell proliferation assay
ZIKV strain GZ01 = conditions: ZIKV strain GZ01, Vero cells, RT-qPCR
DENV2 [7] = test: microbe, parasite or virus in culture; conditions: Dengue virus
[8] = Cytotoxicity, MTT or WST-8 cell proliferation assay; conditions: human, A549 cells
[9] = NS2B-NS3 SLC signal, read-out: SLC IC50
[10] = Table 1, read-out: NS2B-MBP NS3 protease IC50
[11] = ZIKV*, without ambient light (in dark)
[12] = JEV*, without ambient light (in dark)
[13] = 25° C., 1:1 Langmuir binding model, read-out: dissociation constant (KD)
[14] = DENV2, A549, read-out: EC50 (DENV2)
[15] = Japanese encephalitis virus, A549, JEV

Sequence of refolded His-NS3 protease domain (P29990 1476-1653 limits assumed): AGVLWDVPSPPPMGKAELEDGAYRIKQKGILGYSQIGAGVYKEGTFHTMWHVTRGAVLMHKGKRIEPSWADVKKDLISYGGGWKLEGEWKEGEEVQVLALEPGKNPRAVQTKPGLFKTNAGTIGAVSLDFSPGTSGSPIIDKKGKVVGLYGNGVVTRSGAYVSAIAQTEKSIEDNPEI
Sequence of DENV2 His-NS2B/His-MBP-NS3 protease (P29990 1476-1660 limits assumed): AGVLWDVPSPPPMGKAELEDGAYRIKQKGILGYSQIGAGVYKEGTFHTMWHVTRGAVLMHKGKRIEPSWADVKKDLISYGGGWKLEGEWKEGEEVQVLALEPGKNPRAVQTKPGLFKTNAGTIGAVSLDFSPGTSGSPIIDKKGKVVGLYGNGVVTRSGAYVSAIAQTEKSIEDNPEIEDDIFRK
Sequence of NS2B-NS3 interactions (Nluc-E66stop/GCN) (P29990 1476-1660 limits assumed): as above
Sequence of ZIKV GST-NS3 protease domain / FLAG-tagged ZIKV NS2B (Q32ZE1 1499-1676): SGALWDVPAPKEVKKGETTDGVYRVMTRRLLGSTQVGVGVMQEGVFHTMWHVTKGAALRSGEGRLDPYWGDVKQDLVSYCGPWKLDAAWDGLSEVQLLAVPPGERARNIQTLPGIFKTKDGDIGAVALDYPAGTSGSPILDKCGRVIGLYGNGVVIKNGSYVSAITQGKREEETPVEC
Sequence of DENV2 His-MBP-NS3 (P29990 1476-1660 limits assumed): as the sequence (P29990 1476-1660 limits assumed) above

## 3-[10,15,20-tris(3-hydroxyphenyl)-2,3,22,24-tetrahydroporphyrin-5-yl]phenol [Temoporfin]
[1]; [9]
  IC50: 11200 nM
[2]; [10]
  IC50: 760 nM
[2]; Table 3, read-out: IC50-pro
  IC50: 1100 ± 100 nM
[2]; compound at 1.5 μM, 50 nM MBP-NS3, 1 μM His-NS2B, Abz substrate
  Vmax of the His-NS2B/MBP-NS3 hetero protease complex, % of the DMSO control: 57%
[2]; compound at 1.5 μM, Abz substrate
  Km versus DMSO control: similar
[3]; ZIKV
  EC50: 24 ± 3 nM
  EC90: 130 nM
[3]; [11]
  EC50: 22 ± 2 nM
  EC90: 120 nM
[3]
  titer of ZIKV in the absence of light exposure: significantly reduced the titer
WNV; WNV*, without ambient light (in dark)
  EC90: 30 nM
WNV; WNV*, without ambient light (in dark), read-out: EC50
  EC50: 10 ± 1 nM
JEV; [12]
  EC50: 11 ± 1 nM
  EC90: 25 nM
YFV; YFV*, without ambient light (in dark), read-out: EC50
  EC50: 6 ± 1 nM
YFV; YFV*, without ambient light (in dark), read-out: EC90
  EC90: 15 nM
SLEV
  EC50: 8 ± 1 nM
  EC90: 25 nM
POWV
  EC50: 10 ± 1 nM
  EC90: 32 nM
ZIKV; 90 nM added at 0 hours postinfection
  virus reduction: 92.3%
ZIKV; 90 nM added at 1 hour postinfection
  virus reduction: 92%
ZIKV; 90 nM added at 3 hours postinfection
  virus reduction: 90.5%
ZIKV; 90 nM added at 22 hours postinfection
  virus reduction: 86.5%
ZIKV
  effectiveness of addition at 24-hour post-infection versus at the time of infection: almost equally effective
ZIKV strain GZ01/2016
  reduction in ZIKV-induced viremia compared to the vehicle control: about 100 fold
ZIKV GZ01/2016 strain
  infected animals protected (survival): 83%
[4]; [13]
  Kd: 400 nM
DENV2 His-MBP-NS3
  Tm compared to the DMSO control: increased Tm
[5]
  binding of FLAG-NS2B to GST-NS3: significantly decreased the binding
ZIKV NS3 expression
  expression of ZIKV NS3 (western blot): significantly inhibited
DENV2 [6]; DENV2, Table 3
  EC50: 20 ± 3 nM
  EC90: 110 nM
DENV2 [6]; read-out: EC50 (DENV2), Table 1
  EC50: 73 nM
A549 cells; A549 cells, Table 1
  CC50: 40700 nM
A549 cells; Table 3
  CC50: 40700 ± 700 nM
ZIKV strain GZ01
  EC50 value: 0.1 µg/mL

## Cc1ccc(O)c(-n2nc3ccccc3n2)c1 [2-(2H-Benzotriazol-2-yl)-4 methylphenol]
[1]
  IC50: 7800 nM

## Nc1ccc(N=Nc2ccccc2)cc1 [4-Aminoazobenzene]
[1]
  IC50: 12600 nM

## O=C(O)c1cccc(-c2noc(-c3ccccc3F)n2)c1 [Ataluren]
[1]
  IC50: 100 nM
[2]; [10]
  IC50: 21600 nM
DENV2 [6]; DENV2, Table 1
  Therapeutic index (TI) (CC50/EC50): >50
DENV2 [7]; [14]
  EC50: < 2000 nM
[8]; CC50, A549 cells, Table 1
  CC50 at 42 h: > 100000 nM

## CNC(=O)c1ccccc1Sc1ccc2c(/C=C/c3ccccn3)n[nH]c2c1 [Axitinib]
[1]
  IC50: 5300 nM

## c1ccc(CCNc2nc(-c3ccccc3)cs2)cc1 [Fanetizole]
[1]
  IC50: 12400 nM

## COc1ccc2nc(NC(=O)Nc3ccccc3)sc2c1 [Frentizole]
[1]
  IC50: 380 nM

## O=c1c(-c2ccc(O)cc2)coc2cc(O)cc(O)c12 [Genistein]
[1]
  IC50: 7200 nM

## CC(C)Oc1ccc2c(=O)c(-c3ccccc3)coc2c1 [Ipriflavone]
[1]
  IC50: 5300 nM

## CCN(CC)c1ccc(C(=C2C=CC(=[N+](CC)CC)C=C2)c2cc(S(=O)(=O)O)ccc2S(=O)(=O)[O-])cc1 [Isosulfan blue]
[1]; [9]
  IC50: 12200 nM

## CN(C)c1ccc2nc3ccc(=[N+](C)C)cc-3sc2c1 [Methylene blue, [7-(dimethylamino)phenothiazin-3-ylidene]-dimethylazanium;chloride]
[1]
  IC50: 5500 nM
[2]; [10]
  IC50: 41600 nM
[2]; Table 3, read-out: IC50-pro
  IC50: 40000 nM
[3]; Zika virus, A549, ZIKV*, without ambient light (in dark)
  EC50: 280 nM
[3]
  titer of ZIKV in the absence of light exposure: significantly reduced the titer
WNV; West Nile virus, A549
  EC50: 100 nM
DENV2 [7]; [14]
  EC50: < 2000 nM

## O=C(Nc1ccc([N+](=O)[O-])cc1Cl)c1cc(Cl)ccc1O [Niclosamide, 5-chloro-N-(2-chloro-4-nitrophenyl)-2-hydroxybenzamide]
[1]
  IC50: 700 nM
[2]; [10]
  IC50: 12300 nM
[2]; Table 3, read-out: IC50-pro
  IC50: 12300 ± 600 nM
[3]; Zika virus, A549, ZIKV
  EC50: 480 ± 60 nM
  EC90: 1900 nM
WNV; West Nile virus, A549, WNV
  EC90: 2300 nM
WNV; West Nile virus, A549, WNV, read-out: EC50
  EC50: 540 ± 170 nM
JEV; [15]
  EC50: 1020 ± 80 nM
  EC90: 2400 nM
YFV; Yellow fever virus, A549
  EC50: 840 ± 20 nM
  EC90: 1900 nM
ZIKV
  effectiveness of addition at 24-hour post-infection versus at the time of infection: almost equally effective
[4]
  Kd: 6400 nM
DENV2 His-MBP-NS3
  Tm compared to the DMSO control: increased Tm
[5]
  binding of FLAG-NS2B to GST-NS3: significantly decreased the binding
ZIKV NS3 expression
  expression of ZIKV NS3 (western blot): significantly inhibited
DENV2 [6]; DENV2, Table 1
  Therapeutic index (TI) (CC50/EC50): >182
DENV2 [7]; DENV2, A549
  EC50: 550 ± 50 nM
  EC90: 2300 nM
DENV2 [7]; [14]
  EC50: 550 nM

## CC(=O)Oc1ccccc1C(=O)Nc1ncc([N+](=O)[O-])s1 [Nitazoxanide, [2-[(5-nitro-1,3-thiazol-2-yl)carbamoyl]phenyl]acetate]
[1]
  IC50: 3400 nM
[2]; [10]
  IC50: 15900 nM
[2]; Table 3, read-out: IC50-pro
  IC50: 15900 ± 900 nM
[3]; Zika virus, A549, ZIKV
  EC50: 1480 ± 180 nM
  EC90: 4000 nM
JEV; [15]
  EC50: 390 nM
[4]; [13]
  Kd: 7300 nM
DENV2 [6]; DENV2, Table 1
  Therapeutic index (TI) (CC50/EC50): >0
DENV2 [7]; [14]
  EC50: < 10000 nM
[8]; CC50, A549 cells, Table 1
  CC50 at 42 h: > 100000 nM
[8]; CC50, Table 3
  CC50 at 42 h: 77000 ± 7200 nM
A549 cells; Table 3
  CC50: 60000 nM

## CC(C)CCOC(=O)c1ccc(N(C)C)cc1 [Padimate]
[1]; [9]
  IC50: 14400 nM

## Nc1ccc(/N=N/c2ccccc2)c(N)n1 [Phenazopyridine hydrochloride]
[1]
  IC50: 13200 nM

## Clc1ccccc1-c1nc(-c2ccncc2)no1 [Pifexole]
[1]
  IC50: 7500 nM

## Oc1ccc(C=Cc2cc(O)cc(O)c2)cc1 [Resveratrol]
[1]
  IC50: 9000 nM

## O=C(Nc1ncc([N+](=O)[O-])s1)c1cccs1 [Tenonitrozole]
[1]
  IC50: 4900 nM

## Cc1cc2nc3ccc(N(C)C)cc3[s+]c2cc1N [Toluidine blue]
[1]; [9]
  IC50: 14300 nM

## CS(=O)(=O)c1ccc(-c2cn3ccccc3n2)cc1 [Zolimidine]
[1]
  IC50: 12100 nM

## Amlenasox
[1]; [9]
  IC50: 4700 nM
